Results on 15 compounds are retold here after patent US4381311A, “Antiinflammatory 4,5-diaryl-α-(polyhalomethyl)-2-thiophenemethanols” (E. I. Du Pont de Nemours and Company, priority 1981, dated 1983).

The first assay relates to adjuvant-induced arthritis in rats. As to the kind of experiment: Established adjuvant-induced arthritis in rats (paw volume of uninjected left hind paw). Type of assay: in vivo, Charles River Lewis male rats. Conditions: Rattus norvegicus, 168 h; oral gavage daily, 7 days; established adjuvant-induced arthritis, Lewis male rats; ED50% by inspection of dose-response regression lines; read-out: ED50% Decrease From Control Paw Volume. As to the method: A procedure for detecting and comparing the antiinflammatory activity of compounds in this series and standard drugs for which there is a good correlation with human efficacy is the adjuvant-induced arthritis test in rats.
The test procedure employed for determining antiinflammatory activity is described below.
ESTABLISHED ADJUVANT-INDUCED ARTHRITIS IN RATS
Charles River Lewis male rats (130-150 grams) are injected subcutaneously in plantar area of the right hind paw with 0.1 ml of adjuvant (Difco heat-killed, lyophilized Mycobacterium butyricum suspended in mineral oil 5 mg/ml). 20 Non-arthritic controls are injected with mineral oil. The animals are held for 2 weeks to allow development of arthritis. Paw volumes (uninjected, left hind paw) are measured and the adjuvant injected rats are culled and distributed to treatment groups of 10 of equal disease severity. Non-arthritic controls are distributed to 2 groups of 10. The rats are given oral doses of compound or PVA-Acacia (Polyvinyl Alcohol 1%, Gum Acacia, U.S.P. 5%, Methylparaben 0.5%) (10 ml/kg) by gavage on that day and on the 6 following days. One day after the last dose the paw volumes (uninjected, left hind paw) are measured using a Ugo Basile Volume Differential Meter Model 7101. [formula]
Dose-response regression lines of the % decrease are plotted on semi-log paper by visual fit and the ED50% decrease from control paw volume is determined by inspection.
In general, ED50 refers to the midpoint of the dose-response relation. Regarding `OC(c1cc(-c2ccc(F)cc2)c(-c2ccc(F)cc2)s1)(C(F)(F)F)C(F)(F)F` [Example 1, 4,5-Bis(4-fluorophenyl)-α,α-bis(trifluoromethyl)-2-thiophenemethanol], the ED50 was 10 mg/kg.
`COc1ccc(-c2cc(C(O)(C(F)(F)F)C(F)(F)F)sc2-c2ccc(SC)cc2)cc1` [Example 4, 4-(4-Methoxyphenyl)-5-(4-methylthiophenyl)-α,α-bis(trifluoromethyl)-2-thiophenemethanol]: the ED50 stood at 10 mg/kg.
For `OC(c1cc(-c2ccc(F)cc2)c(-c2ccc(Cl)cc2)s1)(C(F)(F)F)C(F)(F)F` [Example 5, 5-(4-Chlorophenyl)-4-(4-fluorophenyl)-α,α-bis(trifluoromethyl)-2-thiophenemethanol], the ED50 is 9 mg/kg.
On to `OC(c1cc(-c2ccccc2)c(-c2ccccc2)s1)(C(F)(F)F)C(F)(F)F` [Example 6], for which the ED50 was determined as 21 mg/kg.
Take `CC(O)(c1cc(-c2ccc(F)cc2)c(-c2ccc(F)cc2)s1)C(F)(F)F` (stereo not drawn) [Example 7, 4,5-Bis(4-fluorophenyl)-α-methyl-α-trifluoromethyl-2-thiophenemethanol]: the ED50 is 5.5 mg/kg.
As to `OC(c1cc(-c2ccc(F)cc2)c(-c2ccc(F)cc2)s1)(C(F)(F)Cl)C(F)(F)Cl` [Example 8, 4,5-Bis(4-fluorophenyl)-α,α-bis(chlorodifluoromethyl)-2-thiophenemethanol], the 50% effective dose (ED50) is 4.5 mg/kg.
On the same count and under the same terms, next, `OC(c1cc(-c2ccc(F)cc2)c(-c2ccc(F)cc2)s1)(C(F)F)C(F)(F)F` (stereo not drawn) [Example 9]: 18 mg/kg.
With `OC(c1cc(-c2ccc(F)cc2)c(-c2ccc(F)cc2)s1)(C(F)(F)F)C(F)(F)Cl` (stereo not drawn) [Example 10, 4,5-Bis(4-fluorophenyl)-α-chlorodifluoromethyl-α-trifluoromethyl-2-thiophenemethanol], the ED50 was 6.8 mg/kg.
Regarding `Cc1c(C(O)(C(F)(F)Cl)C(F)(F)Cl)sc(-c2ccc(F)cc2)c1-c1ccc(F)cc1` [Example 27, 3-Methyl-4,5-bis(4-fluorophenyl)-α,α-bis(chlorodifluoromethyl)-2-thiophenemethanol], the ED50 was determined as 12 mg/kg.
On to `CCCCC1C(=O)N(c2ccccc2)N(c2ccccc2)C1=O` [Phenylbutazone, reference compound], for which the ED50 was 10 mg/kg.

Staying with this assay, now noted: Rattus norvegicus, po, 168 h, read-out: ED50% Decrease From Control Paw Volume.
On to `CC(=O)Oc1ccccc1C(=O)O` [Aspirin, reference compound], for which the ED50 is 270 mg/kg.
In the case of `COc1ccc2c(c1)c(CC(=O)O)c(C)n2C(=O)c1ccc(Cl)cc1` [Indomethacin, reference compound], the ED50 was determined as 0.25 mg/kg.

Staying with this assay, now noted: daily oral dose 27 mg/kg, 7 days; established adjuvant-induced arthritis, rats; p < 0.1 (Ex. 2), p < 0.001 (Ex. 3) vs control, Student's t test.
For the compound `OC(c1cc(-c2ccc(F)cc2)c(-c2ccc(F)cc2)s1)(C(F)(F)Cl)C(F)(Cl)Cl` (stereo not drawn) [Example 2], the “Percent Decrease From Control Paw Volume” value came to 20%.
As to `COc1ccc(-c2cc(C(O)(C(F)(F)F)C(F)(F)F)sc2-c2ccc(OC)cc2)cc1` [Example 3], the “Percent Decrease From Control Paw Volume” value was determined as 47%.

Staying with this assay, now noted: daily oral dose 51 mg/kg, 7 days; established adjuvant-induced arthritis, rats; p < 0.001 vs control, Student's t test.
Turning to `CC(=O)OC(c1cc(-c2ccc(F)cc2)c(-c2ccc(F)cc2)s1)(C(F)(F)Cl)C(F)(F)Cl` [Example 29, 4,5-Bis(4-fluorophenyl)-α,α-bis(chlorodifluoromethyl)-2-thiophenemethanol, acetate], the “Percent Decrease From Control Paw Volume” value came out at 31%.
